For 25 compounds, GI50 results are on record in patent publication US20240166663A1, “NOVEL PYRIMIDINE DERIVATIVE SHOWING INHIBITION EFFECT ON GROWTH OF CANCER CELLS” (ONCOBIX CO., LTD., priority 2021, published 2024).

The experiment deals with EXON 20 Insertion(NPG) Ba/F3 Cell (Homo sapiens, UniProt P00533, INS772GNP, cells depend on it). Put plainly: Measurement of cancer cell growth inhibitory effect (MTT assay). It is filed as cell-based, Murine. Conditions: Ba/F3 cells expressing EGFR with NPG added at D770_N771, 72 hours treatment, read at 595 nm, read-out: EXON 20 Insertion(NPG) Ba/F3 Cell(IC50). The text has this: Since there is no commercially available lung cancer cell line with EGFR insertion mutation, a method of inserting 3 to 4 amino acids at each site using site direct mutagenesis in a wild type EGFR expression vector was attempted. In the present invention, first, a vector with three amino acids of NPG added to the D770_N771 site with the highest frequency was used, and Ba/F3 cell line was used for expression of these genes.
EXON 20 Insertion(NPG) Ba/F3 Cell, sequence (P00533 with tags, fused parts or gaps INS772GNP): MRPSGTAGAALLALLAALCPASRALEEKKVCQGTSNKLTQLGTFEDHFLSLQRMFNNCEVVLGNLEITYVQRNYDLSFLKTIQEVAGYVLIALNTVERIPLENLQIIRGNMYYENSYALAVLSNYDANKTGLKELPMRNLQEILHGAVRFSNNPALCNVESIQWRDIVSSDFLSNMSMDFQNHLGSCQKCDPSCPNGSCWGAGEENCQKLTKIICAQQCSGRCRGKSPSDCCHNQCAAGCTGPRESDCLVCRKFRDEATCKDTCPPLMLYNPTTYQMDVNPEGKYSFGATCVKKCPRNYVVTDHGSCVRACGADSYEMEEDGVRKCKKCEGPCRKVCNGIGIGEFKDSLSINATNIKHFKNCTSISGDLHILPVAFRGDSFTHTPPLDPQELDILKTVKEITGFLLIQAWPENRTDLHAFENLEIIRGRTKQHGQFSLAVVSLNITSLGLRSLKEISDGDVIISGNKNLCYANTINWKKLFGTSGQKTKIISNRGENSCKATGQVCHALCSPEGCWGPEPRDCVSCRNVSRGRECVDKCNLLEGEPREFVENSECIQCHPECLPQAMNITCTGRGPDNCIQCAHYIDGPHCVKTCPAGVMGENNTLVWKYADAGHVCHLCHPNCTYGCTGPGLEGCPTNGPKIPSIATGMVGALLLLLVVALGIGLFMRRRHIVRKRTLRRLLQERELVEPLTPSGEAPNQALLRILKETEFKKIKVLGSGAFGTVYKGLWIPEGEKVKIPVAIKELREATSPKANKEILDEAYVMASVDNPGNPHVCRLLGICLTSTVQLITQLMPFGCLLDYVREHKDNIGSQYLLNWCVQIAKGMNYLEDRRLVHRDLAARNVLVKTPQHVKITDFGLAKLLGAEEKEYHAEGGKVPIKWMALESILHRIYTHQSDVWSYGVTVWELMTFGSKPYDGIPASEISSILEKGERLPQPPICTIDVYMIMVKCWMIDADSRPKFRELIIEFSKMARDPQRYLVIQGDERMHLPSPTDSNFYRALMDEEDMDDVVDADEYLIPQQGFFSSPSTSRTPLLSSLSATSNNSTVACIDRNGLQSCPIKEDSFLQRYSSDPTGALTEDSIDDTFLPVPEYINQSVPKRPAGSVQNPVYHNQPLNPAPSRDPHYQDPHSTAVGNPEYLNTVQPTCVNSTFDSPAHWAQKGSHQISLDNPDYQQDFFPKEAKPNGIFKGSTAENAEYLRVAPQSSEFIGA
When the oncogenic mutant EGFR is expressed, dependence on the mutant EGFR for cell growth and apoptosis occurs without IL-3. Therefore, substances that show effective inhibition of mutant EGFR suppress cell growth and induce apoptosis, so the anticancer effect of cells was analyzed through MTT assay.
1×10^4 cells of the previously constructed stable cells were put into a 96 well plate and incubated overnight, and then the compound of Example was dose dependently treated. After 72 hours, MTT reagent was added, and after 3 hours stop buffer (10% SDS) was added. After 24 hours of incubation, the results were analyzed by reading at 595 nm. […] As a control drug, Mobocertinib was used.
Background: Formazan colour is commonly taken as a measure of viable cells.
`C=CC(=O)Nc1cc(Nc2ncc(C(=O)OC)c(Nc3ccccc3-c3ccn(C)n3)n2)c(OC)cc1N(C)CCN(C)C` [Example 18, methyl 2-((5-acrylamido-4-((2-(dimethylamino)ethyl)(methyl)amino)-2-methoxyphenyl)amino)-4-((2-(1-methyl-1H-pyrazol-3-yl)phenyl)amino)pyrimidin-5-carboxylate]: the GI50 lay within 25 to 50 nM. As for `C=CC(=O)Nc1cc(Nc2cc(Nc3ccccc3-n3cccn3)ncn2)c(OC)cc1N(C)CCN(CC)CC` [Example 37, N-(5-((6-((2-(1H-pyrazol-1-yl)phenyl)amino)pyrimidin-4-yl)amino)-2-((2-(diethylamino)ethyl)(methyl)amino)-4-methoxyphenyl)acrylamide], the GI50 is 25 to 50 nM.

`C=CC(=O)Nc1cc(Nc2ncc(C(F)(F)F)c(Nc3ccccc3-c3ccn(C)n3)n2)c(OC)cc1N(C)CCN(C)C` [Example 15, N-(2-((2-(dimethylamino)ethyl)(methyl)amino)-4-methoxy-5-((4-((2-(1-methyl-1H-pyrazol-3-yl)phenyl)amino)-5-(trifluoromethyl)pyrimidin-2-yl)amino)phenyl)acrylamide]: the GI50 was in the range of 25 to 50 nM.

Turning to `C=CC(=O)Nc1cc(Nc2cc(Nc3ccccc3-c3ccn(C)n3)ncn2)c(OC(C)C)cc1N(C)CCN(C)C` [Example 3, N-(2-((2-(dimethylamino)ethyl)(methyl)amino)-4-isopropoxy-5-((6-((2-(1-methyl-1H-pyrazol-3-yl)phenyl)amino)pyrimidin-4-yl)amino)phenyl)acrylamide], the GI50 lay in the range of 25 to 50 nM. Take `C=CC(=O)Nc1cc(Nc2cc(Nc3ccccc3-c3ccn(C)n3)ncn2)c(OCC(F)(F)F)cc1N(C)CCN(C)C` [Example 10, N-(2-((2-(diamethylamino)ethyl)(methyl)amino)-5-((6-((2-(1-methyl-1H-pyrazol-3-yl)phenyl)amino)pyrimidin-4-yl)amino)-4-(2,2,2-trifluoroethoxy)phenyl)acrylamide]: the GI50 is less than 25 nM.

For the compound `C=CC(=O)Nc1cc(Nc2ncc(C(=O)OC(C)C)c(Nc3ccccc3-c3ccn(C)n3)n2)c(OC)cc1N1CC[C@@H](N(C)C)C1` [Example 26, Isopropyl(R)-2-((5-acrylamido-4-(3-(dimethylamino)pyrrolidin-1-yl)-2-methoxyphenyl)amino)-4-((2-(1-methyl-1H-pyrazol-3-yl)phenyl)amino)pyrimidin-5-carboxylate], the GI50 was 25 to 50 nM. As to `C=CC(=O)Nc1cc(Nc2ncc(Cl)c(Nc3ccccc3-c3ccn(C)n3)n2)c(OC)cc1N(C)CCN(C)C` [Example 29, N-(5-((5-chloro-4-((2-(1-methyl-1H-pyrazol-3-yl)phenyl)amino)pyrimidin-2-yl)amino)-2-((2-(dimethylamino)ethyl)(methyl)amino)-4-methoxyphenyl)acrylamide], the GI50 is less than 25 nM. With `C=CC(=O)Nc1cc(Nc2ncc(C(=O)OCC)c(Nc3ccccc3-n3cccn3)n2)c(OC)cc1N(C)CCN(C)C` [Example 21, ethyl 4-((2-(1H-pyrazol-1-yl)phenyl)amino)-2-((5-acrylamido-4-((2-(dimethylamino)ethyl)(methyl)amino)-2-methoxyphenyl)amino)pyrimidin-5-carboxylate], the GI50 lay in the range of 25 to 50 nM.

As to `C=CC(=O)Nc1cc(Nc2ncc(Cl)c(Nc3ccccc3-c3ccn(C)n3)n2)c(OC)cc1N1CCOCC1` [Example 32, N-(5-((5-chloro-4-((2-(1-methyl-1H-pyrazol-3-yl)phenyl)amino)pyrimidin-2-yl)amino)-4-methoxy-2-morpholinophenyl)acrylamide], the GI50 was in the range of 25 to 50 nM. Take `C=CC(=O)Nc1cc(Nc2cc(Nc3ccccc3-n3cccn3)ncn2)c(OC)cc1N1C2CCC1COC2` [Example 39, N-(5-((6-((2-(1H-pyrazol-1-yl)phenyl)amino)pyrimidin-4-yl)amino)-2-(3-oxa-8-azabicyclo[3.2.1]octan-8-yl)-4-methoxyphenyl)acrylamide]: the GI50 lay within 25 to 50 nM. With `C=CC(=O)Nc1cc(Nc2ncc(C)c(Nc3ccccc3-n3cccn3)n2)c(OC)cc1N(C)CCN(C)C` [Example 14, N-(5-((4-((2-(1H-pyrazol-1-yl)phenyl)amino)-5-methylpyrimidin-2-yl)amino)-2-((2-(dimethylamino)ethyl)(methyl)amino)-4-methoxyphenyl)acrylamide], the GI50 was 25 to 50 nM. On to `C=CC(=O)Nc1cc(Nc2ncc(Cl)c(Nc3ccccc3-c3ccn(C)n3)n2)c(OC)cc1N(C)[C@H]1CCN(C)C1` [Example 36, (S)-N-(5-((5-chloro-4-((2-(1-methyl-1H-pyrazol-3-yl)phenyl)amino)pyrimidin-2-yl)amino)-4-methoxy-2-(methyl(1-methylpyrrolidin-3-yl)amino)phenyl)acrylamide], for which the GI50 fell in the range of 25 to 50 nM. `C=CC(=O)Nc1cc(Nc2ncc(Cl)c(Nc3ccccc3-n3cccn3)n2)c(OC)cc1N(C)CCN(C)C` [Example 30, N-(5-((4-((2-(1H-pyrazol-1-yl)phenyl)amino)-5-chloropyrimidin-2-yl)amino)-2-((2-(dimethylamino)ethyl)(methyl)amino)-4-methoxyphenyl)acrylamide]: the GI50 is less than 25 nM.

Regarding `C=CC(=O)Nc1cc(Nc2cc(Nc3ccccc3-c3ccn(C)n3)ncn2)c(OC)cc1N1CC[C@@H](N(C)C)C1` [Example 7, (R)-N-(2-(3-(dimethylamino)pyrrolidin-1-yl)-4-methoxy-5-((6-((2-(1-methyl-1H-pyrazol-3-yl)phenyl)amino)pyrimidin-4-yl)amino)phenyl)acrylamide], the GI50 lay in the range of 25 to 50 nM.

Turning to `C=CC(=O)Nc1cc(Nc2ncc(C(=O)OC(C)C)c(Nc3ccccc3-c3ccn(C)n3)n2)c(OC)cc1N1CCN(C)CC1` [Example 23, Isopropyl 2-((5-acrylamido-2-methoxy-4-(4-methylpiperizin-l-yl)phenyl)amino)-4-((2-(1-methyl-1H-pyrazol-3-yl)phenyl)amino)pyrimidin-5-carboxylate], the GI50 fell in the range of 25 to 50 nM.

As for `C=CC(=O)Nc1cc(Nc2cc(Nc3ccccc3-n3cccn3)ncn2)c(OC)cc1N1CC2COCC2C1` (stereo not shown) [Example 38, N-(5-((6-((2-(1H-pyrazol-1-yl)phenyl)amino)pyrimidin-4-yl)amino)-4-methoxy-2-(tetrahydro-1H-furo[3,4-c]pyrrol-5 (3H)-yl)phenyl)acrylamide], the GI50 was 25 to 50 nM. Regarding `C=CC(=O)Nc1cc(Nc2ncc(Cl)c(Nc3ccccc3-c3ccn(C)n3)n2)c(OC)cc1N1CC[C@@H](N(C)C)C1` [Example 34, (R)-N-(5-((5-chloro-4-((2-(1-methyl-1H-pyrazol-3-yl)phenyl)amino)pyrimidin-2-yl)amino)-2-(3-(dimethylamino)pyrrolidin-1-yl)-4-methoxyphenyl)acrylamide], the GI50 is 25 to 50 nM. Next, `C=CC(=O)Nc1cc(Nc2ncc(C(=O)OC3CC3)c(Nc3ccccc3-c3ccn(C)n3)n2)c(OC)cc1N(C)CCN(C)C` [Example 22, cyclopropyl 2-((5-acrylamido-4-((2-(dimethylamino)ethyl)(methyl)amino)-2-methoxyphenyl)amino)-4-((2-(1-methyl-1H-pyrazol-3-yl)phenyl)amino)pyrimidin-5-carboxylate]: 25 to 50 nM; `C=CC(=O)Nc1cc(Nc2ncc(C(=O)OC(C)C)c(Nc3ccccc3-n3cccn3)n2)c(OC)cc1N(C)CCN(C)C` [Example 17, Isopropyl 4-((2-(1H-pyrazol-1-yl)phenyl)amino)-2-((5-acrylamido-4-((2-(dimethylamino)ethyl)(methyl)amino)-2-methoxyphenyl)amino)pyrimidin-5-carboxylate]: less than 25 nM. Next, `C=CC(=O)Nc1cc(Nc2cc(Nc3ccccc3-c3ccn(C)n3)ncn2)c(OC)cc1N1CCN(C)CC1` [Example 4, N-(4-methoxy-5-((6-((2-(1-methyl-1H-pyrazol-3-yl)phenyl)amino)pyrimidin-4-yl)amino)-2-(4-methylpiperizin-1-yl)phenyl)acrylamide]: 25 to 50 nM.

With `C=CC(=O)Nc1cc(Nc2cc(Nc3ccccc3-c3ccn(C)n3)ncn2)c(OCC)cc1N(C)CCN(C)C` [Example 11], the GI50 lay in the range of 25 to 50 nM. Consider `C=CC(=O)Nc1cc(Nc2ncc(C(=O)OCC)c(Nc3ccccc3-c3ccn(C)n3)n2)c(OC)cc1N(C)CCN(C)C` [Example 20, ethyl 2-((5-acrylamido-4-((2-(dimethylamino)ethyl)(methyl)amino)-2-methoxyphenyl)amino)-4-((2-(1-methyl-1H-pyrazol-3-yl)phenyl)amino)pyrimidin-5-carboxylate], for which the GI50 lay within 25 to 50 nM. For `C=CC(=O)Nc1cc(Nc2ncc(C(=O)OC(C)C)c(-c3cn(C)c4ccccc34)n2)c(OC)cc1N(C)CCN(C)C` [Mobocertinib, reference compound], the GI50 is 50 to 500 nM. As to `C=CC(=O)Nc1cc(Nc2cc(Nc3ccccc3-c3ccn(C)n3)ncn2)c(OC)cc1N1CCOCC1` [Example 5, N-(4-methoxy-5-((6-((2-(1-methyl-1H-pyrazol-3-yl)phenyl)amino)pyrimidin-4-yl)amino)-2-morpholinophenyl)acrylamide], the GI50 fell in the range of 25 to 50 nM. Next, `C=CC(=O)Nc1cc(Nc2ncc(Cl)c(Nc3ccccc3-c3ccn(C)n3)n2)c(OC)cc1N1CCN(C)CC1` [Example 31, N-(5-((5-chloro-4-((2-(1-methyl-1H-pyrazol-3-yl)phenyl)amino)pyrimidin-2-yl)amino)-4-methoxy-2-(4-methylpiperizin-1-yl)phenyl)acrylamide]: 25 to 50 nM.
